Assay results: PubChem BioAssay (NCI)
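Five concentrations, 48 hours, 96-well plates. GI50 = concentration required for 50% inhibition of growth. Definition used: TGI = concentration required for complete inhibition of growth.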

Key:
Experiment in all cases: growth of human tumour cells (NCI), 48 h
NCI-H23 lung = tested on: NCI-H23 lung
UO-31 renal = tested on: UO-31 renal
SK-OV-3 ovarian = tested on: SK-OV-3 ovarian
DU-145 prostate = tested on: DU-145 prostate
HCT-116 colon = tested on: HCT-116 colon
SNB-75 CNS = tested on: SNB-75 CNS
ACHN renal = tested on: ACHN renal
OVCAR-3 ovarian = tested on: OVCAR-3 ovarian
U251 CNS = tested on: U251 CNS
SNB-19 CNS = tested on: SNB-19 CNS

Row | SMILES | TGI (NCI-H23 lung) | TGI (UO-31 renal) | TGI (SK-OV-3 ovarian) | TGI (DU-145 prostate) | TGI (HCT-116 colon) | TGI (SNB-75 CNS) | TGI (ACHN renal) | TGI (OVCAR-3 ovarian) | TGI (U251 CNS) | TGI (SNB-19 CNS) | GI50 (NCI-H23 lung) | GI50 (SK-OV-3 ovarian) | GI50 (DU-145 prostate) | GI50 (HCT-116 colon) | GI50 (SNB-75 CNS) | GI50 (ACHN renal) | GI50 (OVCAR-3 ovarian) | GI50 (U251 CNS) | GI50 (SNB-19 CNS) | GI50 (UO-31 renal)
1 | NC(N)=NCCCC(=O)O | > 100 µM | > 100 µM | > 100 µM | > 100 µM | > 100 µM | > 100 µM | > 100 µM | > 100 µM | > 100 µM | > 100 µM |  |  |  |  |  |  |  |  |  | 
2 | Cc1nc(N)sc1N=Nc1ccccc1Br | 56.3 µM | 60.5 µM | > 100 µM | 58.5 µM | 55.1 µM | 37.5 µM | > 86 µM | > 79.9 µM | 52.6 µM | > 69.7 µM |  |  |  |  |  |  |  |  |  | 
3 | COc1cc(C(=O)N2CCN(C(=O)c3cc(OC)c(OC)c(OC)c3)C2=S)cc(OC)c1OC | 37.5 µM | 12.8 µM | 52.7 µM | 27.7 µM | 33.1 µM | 21.6 µM | 34.5 µM | 29.6 µM | 34.4 µM | 38.1 µM | 18.7 µM | 20.2 µM | 13.6 µM | 18.2 µM | 7.1 µM | 17.8 µM | 15.2 µM | 16.3 µM | 18.5 µM | 
4 | COC(=O)c1ccc2c(c1)C(=O)c1c-2n(CCCN=[N+]=[N-])c(=O)c2cc(OC)c(OC)cc12 | > 100 µM | > 100 µM | > 100 µM | > 100 µM | > 100 µM | > 100 µM | > 100 µM | > 100 µM | > 100 µM | > 100 µM | 15.6 µM | 20.8 µM | > 100 µM | > 100 µM | 8.24 µM | > 100 µM | > 100 µM | > 100 µM | > 100 µM | > 100 µM
5 | O=C(/C=C/c1ccc[nH]1)c1ccc(-n2ccc(C(F)(F)F)n2)cc1 | > 100 µM | 2.4 µM | > 100 µM | > 100 µM | > 100 µM | 4.37 µM | > 100 µM | 22.6 µM | > 100 µM | > 100 µM | > 100 µM | > 100 µM | > 100 µM | > 100 µM | 0.877 µM | > 100 µM | 0.764 µM | 5.55 µM | > 100 µM | 0.56 µM
6 | CNCCOC(=O)/C=C1\CC[C@H]2[C@@H]([C@@H](O)C(=O)[C@@H]3[C@]2(C)CC[C@H](O)[C@]3(C)C(=O)OC)[C@H]1C | 0.644 µM | 1.1 µM | 1.36 µM | 0.371 µM | 1.03 µM | 1.74 µM | 0.785 µM | 0.49 µM | 1.17 µM | 1.99 µM | 0.245 µM | 0.392 µM | 0.188 µM | 0.294 µM | 0.396 µM | 0.25 µM | 0.228 µM | 0.324 µM | 0.668 µM | 0.297 µM
7 | O=c1c(F)cn(Cc2ccc(C34CC5CC(CC(C5)C3)C4)c(O)c2)c(=O)n1Cc1ccc(C23CC4CC(CC(C4)C2)C3)c(O)c1 | 32 µM | 41.4 µM | 33.1 µM | 22.9 µM | 25 µM | 30 µM | 26.3 µM | 29.2 µM | 19.5 µM | 57.1 µM | 15.6 µM | 17.9 µM | 8.59 µM | 11.1 µM | 15.1 µM | 13.5 µM | 15.3 µM | 6.89 µM | 27.5 µM | 17.5 µM
8 | N#Cc1nn(-c2cc(=O)[nH]c3ccc(Cl)cc23)c(N)c1C#N | > 100 µM | > 100 µM | > 100 µM | > 100 µM | > 100 µM | > 100 µM | > 100 µM | > 100 µM | > 100 µM | > 100 µM | > 100 µM | > 100 µM | > 100 µM | > 100 µM | > 100 µM | > 100 µM | > 100 µM | > 100 µM | > 100 µM | > 100 µM
9 | COc1cc(Cl)cc(-c2nn(-c3cccc(NC(=O)c4ccc(N5CCOCC5)c(C(F)(F)F)c4)c3)cc2-c2ccncc2)c1 | > 100 µM | > 100 µM | > 100 µM | > 100 µM | > 100 µM | > 100 µM | > 100 µM | > 100 µM | > 100 µM | > 100 µM | 30.7 µM | > 100 µM | > 100 µM | 9.64 µM | 2.08 µM | 7.31 µM | 53.1 µM | 5.03 µM | > 100 µM | 4.5 µM
10 | C[C@@H]1C[C@@H]([C@@H](CC2CC(=O)NC(=O)C2)OC(=O)CC(=O)c2ccccc2)C(=O)[C@@H](C)C1 | > 80.6 µM | 5.1 µM | > 43.7 µM | > 33.3 µM | > 45.2 µM | > 55.1 µM | > 100 µM | > 32.7 µM | > 100 µM | > 100 µM | 0.545 µM | 0.411 µM | 0.769 µM | 0.489 µM | 0.911 µM | 0.0777 µM | 1.74 µM | 0.925 µM | 0.774 µM | 0.159 µM
11 | N#C/C(=C\c1ccc2ccccc2c1)C(=O)c1ccccc1 | > 74.4 µM | > 100 µM | > 100 µM | > 100 µM | > 80.4 µM | > 100 µM | > 100 µM | > 94.4 µM | 32.9 µM | > 100 µM |  |  |  |  |  |  |  |  |  | 
